Read-outs that look alike come from different tables or passages of the source.
Assays:
VEGFR2, unphosphorylated = VEGFR2, unphosphorylated (Homo sapiens (Human), UniProt P35968); assay: VEGFR ADP GLO Assay; format: biochemical
PDGFRβ = PDGFRβ (Rattus norvegicus (Rat), UniProt Q05030); assay: PDGFRβ Cellular Assay (PDGFRb P-Y751 HTRF in A10 cells stimulated with PDGF-BB); format: cell-based
Method in brief: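 Rat A10 cells, plated overnight, were treated with compound for 3 hours, then stimulated with PDGF-BB (working stock 100 ng/mL in 10% FBS medium). After lysis, PDGFRβ P-Y751 was detected by HTRF.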

VEGFR2, unphosphorylated, sequence (P35968 20-1356): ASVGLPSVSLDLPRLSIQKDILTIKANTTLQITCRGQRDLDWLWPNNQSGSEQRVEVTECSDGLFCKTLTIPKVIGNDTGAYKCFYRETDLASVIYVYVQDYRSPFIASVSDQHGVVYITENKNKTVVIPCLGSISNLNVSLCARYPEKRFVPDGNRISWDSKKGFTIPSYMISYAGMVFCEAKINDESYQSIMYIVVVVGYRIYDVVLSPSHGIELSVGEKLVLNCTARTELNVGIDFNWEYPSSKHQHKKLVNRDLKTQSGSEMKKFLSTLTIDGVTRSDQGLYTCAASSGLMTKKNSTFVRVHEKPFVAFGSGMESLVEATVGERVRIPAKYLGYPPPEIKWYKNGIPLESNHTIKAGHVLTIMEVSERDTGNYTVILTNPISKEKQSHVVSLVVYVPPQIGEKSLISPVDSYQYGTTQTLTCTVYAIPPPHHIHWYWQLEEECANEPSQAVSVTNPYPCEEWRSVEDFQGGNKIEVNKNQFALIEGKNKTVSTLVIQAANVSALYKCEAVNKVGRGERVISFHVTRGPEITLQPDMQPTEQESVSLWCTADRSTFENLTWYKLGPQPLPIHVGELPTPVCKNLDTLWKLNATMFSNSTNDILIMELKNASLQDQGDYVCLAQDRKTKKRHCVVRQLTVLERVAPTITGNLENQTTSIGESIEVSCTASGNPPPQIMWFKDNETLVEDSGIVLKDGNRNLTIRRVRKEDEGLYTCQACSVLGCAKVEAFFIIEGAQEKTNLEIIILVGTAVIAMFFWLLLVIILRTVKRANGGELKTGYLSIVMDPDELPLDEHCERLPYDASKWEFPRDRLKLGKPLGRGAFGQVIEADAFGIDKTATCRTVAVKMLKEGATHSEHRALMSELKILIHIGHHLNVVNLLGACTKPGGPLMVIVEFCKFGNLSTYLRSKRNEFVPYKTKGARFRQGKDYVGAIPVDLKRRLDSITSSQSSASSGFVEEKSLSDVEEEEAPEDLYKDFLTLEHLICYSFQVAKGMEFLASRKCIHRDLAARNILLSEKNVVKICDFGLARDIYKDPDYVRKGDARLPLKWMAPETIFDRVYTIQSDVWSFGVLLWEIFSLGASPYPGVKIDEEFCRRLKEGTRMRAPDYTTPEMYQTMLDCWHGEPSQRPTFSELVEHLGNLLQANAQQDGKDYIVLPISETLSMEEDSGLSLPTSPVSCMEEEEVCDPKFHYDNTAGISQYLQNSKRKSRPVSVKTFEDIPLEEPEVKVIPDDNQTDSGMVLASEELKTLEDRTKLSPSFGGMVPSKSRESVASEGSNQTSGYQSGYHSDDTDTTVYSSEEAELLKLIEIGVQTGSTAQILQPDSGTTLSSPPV
PDGFRβ, sequence (Q05030 32-1097): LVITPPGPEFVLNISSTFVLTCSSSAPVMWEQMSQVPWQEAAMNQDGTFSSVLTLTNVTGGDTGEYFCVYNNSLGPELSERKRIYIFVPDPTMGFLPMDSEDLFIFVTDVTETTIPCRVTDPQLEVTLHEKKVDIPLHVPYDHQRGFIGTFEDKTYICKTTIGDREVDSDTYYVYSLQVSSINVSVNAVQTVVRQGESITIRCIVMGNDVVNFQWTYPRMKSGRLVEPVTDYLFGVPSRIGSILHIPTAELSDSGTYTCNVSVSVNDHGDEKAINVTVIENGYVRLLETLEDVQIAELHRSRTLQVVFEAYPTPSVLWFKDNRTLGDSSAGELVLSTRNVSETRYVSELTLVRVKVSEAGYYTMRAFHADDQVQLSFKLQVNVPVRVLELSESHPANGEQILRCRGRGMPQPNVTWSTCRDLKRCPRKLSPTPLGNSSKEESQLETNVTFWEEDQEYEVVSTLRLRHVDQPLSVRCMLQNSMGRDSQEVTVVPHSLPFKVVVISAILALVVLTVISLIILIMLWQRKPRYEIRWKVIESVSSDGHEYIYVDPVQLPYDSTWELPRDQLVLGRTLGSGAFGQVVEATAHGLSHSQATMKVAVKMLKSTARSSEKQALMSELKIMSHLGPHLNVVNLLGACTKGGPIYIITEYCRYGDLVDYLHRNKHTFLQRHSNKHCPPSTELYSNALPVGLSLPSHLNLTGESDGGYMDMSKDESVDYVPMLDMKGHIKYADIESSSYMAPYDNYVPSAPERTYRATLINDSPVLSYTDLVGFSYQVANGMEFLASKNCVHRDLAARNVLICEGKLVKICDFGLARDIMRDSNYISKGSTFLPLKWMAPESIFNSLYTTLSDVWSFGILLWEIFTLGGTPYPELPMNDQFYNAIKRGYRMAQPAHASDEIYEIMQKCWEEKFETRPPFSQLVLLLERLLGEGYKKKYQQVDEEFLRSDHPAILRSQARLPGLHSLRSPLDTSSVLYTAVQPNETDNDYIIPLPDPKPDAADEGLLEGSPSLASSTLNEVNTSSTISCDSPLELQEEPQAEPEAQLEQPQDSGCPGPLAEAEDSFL

| SMILES | IC50 (VEGFR2, unphosphorylated) [nM] | IC50 (PDGFRβ; read-out: PDGFR Cellular IC50) [nM] | IC50 (PDGFRβ; PDGFR Cellular IC50) [nM] |
| --- | --- | --- | --- |
| COCC1CN(CC(=O)Nc2cnc(C)c(NC(=O)c3cnn4cc(-c5cnn(C)c5)sc34)c2)CC(C)(C)O1 (centres unmarked) [Example 383, N-(5-(2-(6-(methoxymethyl)-2,2-dimethylmorpholino)acetamido)-2-methylpyridin-3-yl)-2-(1-methyl-1H-pyrazol-4-yl)pyrazolo[5,1-b]thiazole-7-carboxamide] | > 2500 | 15 |  |
| Cc1ncc(S(=O)(=O)NCCN2CCCC2(C)C)cc1NC(=O)c1cnn2cc(-c3cnn(C)c3)sc12 [Example 359, N-(5-(N-(2-(2,2-dimethylpyrrolidin-1-yl)ethyl)sulfamoyl)-2-methylpyridin-3-yl)-2-(1-methyl-1H-pyrazol-4-yl)pyrazolo[5,1-b]thiazole-7-carboxamide] | > 7500 | 365 |  |
| COc1ncccc1-c1cn2ncc(C(=O)Nc3cc(NC(=O)CN4C[C@H](C)O[C@@H](C)C4)cnc3C)c2s1 (relative stereo) [Example 384, N-(5-(2-(trans-2,6-dimethylmorpholino)acetamido)-2-methylpyridin-3-yl)-2-(2-methoxypyridin-3-yl)pyrazolo[5,1-b]thiazole-7-carboxamide] | > 833 | 4.3 |  |
| Cc1ncc(NC(=O)CN2CC3(CCOCC3)C2)cc1NC(=O)c1cnn2cc(-c3cnn4c3OCCC4)sc12 [Example 406, N-(5-(2-(7-oxa-2-azaspiro[3.5]nonan-2-yl)acetamido)-2-methylpyridin-3-yl)-2-(6,7-dihydro-5H-pyrazolo[5,1-b][1,3]oxazin-3-yl)pyrazolo[5,1-b]thiazole-7-carboxamide] | > 7500 | 18.9 |  |
| COC/C=C/c1cn2ncc(C(=O)Nc3cc(NC(=O)CN4C[C@H](C)O[C@@H](C)C4)cnc3C)c2s1 (relative stereo) [Example 367, N-(5-(2-(trans-2,6-dimethylmorpholino)acetamido)-2-methylpyridin-3-yl)-2-((E)-3-methoxyprop-1-en-1-yl)pyrazolo[5,1-b]thiazole-7-carboxamide] | > 7500 |  | 18.6 |
| COc1ncccc1-c1cn2ncc(C(=O)Nc3cc(NC(=O)CN4C[C@@H](CO)OC(C)(C)C4)cnc3C)c2s1 [Example 380, (S)—N-(5-(2-(6-(hydroxymethyl)-2,2-dimethylmorpholino)acetamido)-2-methylpyridin-3-yl)-2-(2-methoxypyridin-3-yl)pyrazolo[5,1-b]thiazole-7-carboxamide] | > 2500 | 9.8 |  |
| COCCn1cc(-c2cn3ncc(C(=O)Nc4cc(NC(=O)CN5CCC(C)(C)C5)cnc4C)c3s2)cn1 [Example 336, N-(5-(2-(3,3-dimethylpyrrolidin-1-yl)acetamido)-2-methylpyridin-3-yl)-2-(1-(2-methoxyethyl)-1H-pyrazol-4-yl)pyrazolo[5,1-b]thiazole-7-carboxamide] | > 7500 | 3.1 |  |
| COc1ncccc1-c1cn2ncc(C(=O)Nc3cc(NC(=O)CN4C[C@H](C)O[C@@H](C)C4)cnc3C)c2s1 (relative stereo) [Example 368, N-(5-(2-(trans-2,6-dimethylmorpholino)acetamido)-2-methylpyridin-3-yl)-2-(2-methoxypyridin-3-yl)pyrazolo[5,1-b]thiazole-7-carboxamide] | > 7500 | 3.7 |  |
| COc1cccc(-c2cn3ncc(C(=O)Nc4cc(NC(=O)CN5C[C@H](C)O[C@@H](C)C5)cnc4C)c3s2)n1 (relative stereo) [Example 386, N-(5-(2-(trans-2,6-dimethylmorpholino)acetamido)-2-methylpyridin-3-yl)-2-(6-methoxypyridin-2-yl)pyrazolo[5,1-b]thiazole-7-carboxamide] | > 833 | 3.8 |  |
| Cc1ncc(NC(=O)CN2C[C@@H](CO)OC(C)(C)C2)cc1NC(=O)c1cnn2cc(-c3cnn(C)c3)sc12 [Example 377, (S)—N-(5-(2-(6-(hydroxymethyl)-2,2-dimethylmorpholino)acetamido)-2-methylpyridin-3-yl)-2-(1-methyl-1H-pyrazol-4-yl)pyrazolo[5,1-b]thiazole-7-carboxamide] | > 7500 | 119 |  |
| COc1ncccc1-c1cn2ncc(C(=O)Nc3cc(NC(=O)CN4C[C@H](CO)OC(C)(C)C4)cnc3C)c2s1 [Example 379, (R)—N-(5-(2-(6-(hydroxymethyl)-2,2-dimethylmorpholino)acetamido)-2-methylpyridin-3-yl)-2-(2-methoxypyridin-3-yl)pyrazolo[5,1-b]thiazole-7-carboxamide] | > 2500 | 9.2 |  |
| COCCn1cc(-c2cn3ncc(C(=O)Nc4cc(NC(=O)[C@@H]5CCCN5C(C)C)cnc4C)c3s2)cn1 [Example 343, (S)—N-(5-(1-isopropylpyrrolidine-2-carboxamido)-2-methylpyridin-3-yl)-2-(1-(2-methoxyethyl)-1H-pyrazol-4-yl)pyrazolo[5,1-b]thiazole-7-carboxamide] | > 7500 | 47.9 |  |
| Cc1ncc(NC(=O)[C@@H]2CCCN2C)cc1NC(=O)c1cnn2cc(-c3cnn4c3OCCC4)sc12 [Example 349, (S)-2-(6,7-dihydro-5H-pyrazolo[5,1-b][1,3]oxazin-3-yl)-N-(2-methyl-5-(1-methylpyrrolidine-2-carboxamido)pyridin-3-yl)pyrazolo[5,1-b]thiazole-7-carboxamide] | > 7500 | 9.1 |  |
| Cc1ncc(NC(=O)CN2C[C@H](C)O[C@@H](C)C2)cc1NC(=O)c1cnn2cc(-c3cc[nH]n3)sc12 (relative stereo) [Example 374, N-(5-(2-(trans-2,6-dimethylmorpholino)acetamido)-2-methylpyridin-3-yl)-2-(1H-pyrazol-3-yl)pyrazolo[5,1-b]thiazole-7-carboxamide] | > 7500 | 41.3 |  |
| Cc1ncc(NC(=O)CN2CCC[C@H]2C)cc1NC(=O)c1cnn2cc(-c3cnn(C)c3)sc12 [Example 26, (R)-2-(1-methyl-1H-pyrazol-4-yl)-N-(2-methyl-5-(2-(2-methyl-pyrrolidin-1-yl)acetamido)pyridin-3-yl)pyrazolo[5,1-b]thiazole-7-carboxamide] | > 7500 | 5.9 |  |
| Cc1ncc(NC(=O)C2CCN(C(C)C)C2)cc1NC(=O)c1cnn2cc(-c3cnn4c3OCCC4)sc12 (centres unmarked) [Example 350, 2-(6,7-dihydro-5H-pyrazolo[5,1-b][1,3]oxazin-3-yl)-N-(5-(1-isopropylpyrrolidine-3-carboxamido)-2-methylpyridin-3-yl)pyrazolo[5,1-b]thiazole-7-carboxamide] | 6350 | 73.3 |  |
| Cc1ncc(C(=O)NCCN2CCCC2(C)C)cc1NC(=O)c1cnn2cc(-c3cnn(Cc4cc(O)no4)c3)sc12 [Example 363, N-(5-((2-(2,2-dimethylpyrrolidin-1-yl)ethyl)carbamoyl)-2-methylpyridin-3-yl)-2-(1-((3-hydroxyisoxazol-5-yl)methyl)-1H-pyrazol-4-yl)pyrazolo[5,1-b]thiazole-7-carboxamide] | > 7500 | > 2000 |  |
| COc1ncccc1-c1cn2ncc(C(=O)Nc3cc(NC(=O)CN4CCC4)cnc3C)c2s1 [Example 397, N-(5-(2-(azetidin-1-yl)acetamido)-2-methylpyridin-3-yl)-2-(2-methoxypyridin-3-yl)pyrazolo[5,1-b]thiazole-7-carboxamide] | > 7500 |  | 7.6 |
| Cc1ncc(C(=O)NCCN2CCCC2(C)C)cc1NC(=O)c1cnn2cc(-c3cnn(Cc4cc(OCc5ccccc5)no4)c3)sc12 [Example 362, 2-(1-((3-(benzyloxy)isoxazol-5-yl)methyl)-1H-pyrazol-4-yl)-N-(5-((2-(2,2-dimethylpyrrolidin-1-yl)ethyl)carbamoyl)-2-methylpyridin-3-yl)pyrazolo[5,1-b]thiazole-7-carboxamide] | > 2500 | 62.3 |  |
| COCCn1cc(-c2cn3ncc(C(=O)Nc4cc(NC(=O)CN5CCCC5)cnc4C)c3s2)cn1 [Example 337, 2-(1-(2-methoxyethyl)-1H-pyrazol-4-yl)-N-(2-methyl-5-(2-(pyrrolidin-1-yl)acetamido)pyridin-3-yl)pyrazolo[5,1-b]thiazole-7-carboxamide] | > 7500 | 24.9 |  |
| Cc1ncc(NC(=O)CN2CC(C)C2)cc1NC(=O)c1cnn2cc(-c3cnn4c3OCCC4)sc12 [Example 407, 2-(6,7-dihydro-5H-pyrazolo[5,1-b][1,3]oxazin-3-yl)-N-(2-methyl-5-(2-(3-methylazetidin-1-yl)acetamido)pyridin-3-yl)pyrazolo[5,1-b]thiazole-7-carboxamide] | > 7500 | 11.9 |  |
| COc1ncc(-c2cn3ncc(C(=O)Nc4cc(NC(=O)CN5CC(C)(C)C5)cnc4C)c3s2)c(OC)n1 [Example 392, 2-(2,4-dimethoxypyrimidin-5-yl)-N-(5-(2-(3,3-dimethylazetidin-1-yl)acetamido)-2-methylpyridin-3-yl)pyrazolo[5,1-b]thiazole-7-carboxamide] | 7440 |  | 4.8 |
| COCCn1cc(-c2cn3ncc(C(=O)Nc4cc(NC(=O)CN5CCC56CCC6)cnc4C)c3s2)cn1 [Example 333, N-(5-(2-(1-azaspiro[3.3]heptan-1-yl)acetamido)-2-methylpyridin-3-yl)-2-(1-(2-methoxyethyl)-1H-pyrazol-4-yl)pyrazolo[5,1-b]thiazole-7-carboxamide] | > 7500 | 3.3 |  |
| COCCn1cc(-c2cn3ncc(C(=O)Nc4cc(NC(=O)CN5C6CCC5CC6)cnc4C)c3s2)cn1 [Example 340, N-(5-(2-(7-azabicyclo[2.2.1]heptan-7-yl)acetamido)-2-methylpyridin-3-yl)-2-(1-(2-methoxyethyl)-1H-pyrazol-4-yl)pyrazolo[5,1-b]thiazole-7-carboxamide] | > 7500 | 6.5 |  |
| Cc1ncc(NC(=O)CN2C[C@H](CO)OC(C)(C)C2)cc1NC(=O)c1cnn2cc(-c3cnn(C)c3)sc12 [Example 376, (R)—N-(5-(2-(6-(hydroxymethyl)-2,2-dimethylmorpholino)acetamido)-2-methylpyridin-3-yl)-2-(1-methyl-1H-pyrazol-4-yl)pyrazolo[5,1-b]thiazole-7-carboxamide] | > 7500 | 154 |  |
